We go through 13 molecules from US10500288B2, “Cytotoxic HEXIM1 peptides and uses thereof” (AGENCY FOR SCIENCE, TECHNOLOGY AND RESEARCH, priority 2015, dated 2019).

Square brackets hold non-standard residues; d marks the D form. Ends that are not written are not given here. Peptide text beside a SMILES is read from it.

Data set [1] addresses T1, NPM (Homo sapiens, UniProt P06748).
T1 construct: FGF-tagged BR peptide alters the sub-cellular localization and protein level of endogenous NPM; endogenous in cells; host or cells: HCT116 (p53 WT) and HCT116 (p53 KO)
In words: Immunofluorescence of NPM sub-cellular localization, HCT116 (p53 KO). Format: cell-based. The note with it: 30 μM. As to the method: (§1) (A) representative immunofluorescence images showing the sub-cellular localization of α-NPM (bar represents 10 μm). HCT116 (p53 WT) and HCT116 (p53KO) cells were cultured on glass slides overnight, treated with FGF-X13 or FGF-BR (30 μM). Cells treated with FGF-X13 peptide or vehicle, DMSO (0.5%), was used as controls. Treated cells were immunostained with an anti-NPM antibody and analyzed by laser scanning confocal microscopy (Zeiss). Nuclei were visualized by staining with 4′,6-diamidino-2-phenylindole (DAPI).
(§2) For staining with anti-NPM, cultured cells were fixed in 10% neutral buffered formalin (Sigma) for 10 min, and then in methanol for 10 min, washed in PBS and incubated with blocking buffer (PBS containing 0.5% bovine serum albumin) for 1 hour prior to incubation with a mouse anti-NPM antibody (Invitrogen) in blocking buffer for overnight at 4° C. Cells were then incubated with Alexa Fluor 488-conjugated secondary antibody (Jackson Immuno Research Laboratories) for 1 hour, washed three times with PBS and counterstained with 4′,6-diamidino-2-phenylindole (DAPI)-containing mounting solution (Vectashield). Stained cells were examined with a LSM 510 confocal microscope using a 63× objective lens (Zeiss).

Data set [2] has as its system HCT116 (p53 WT) cells. In words: Cell viability (Cell-Titer Glo) in HCT116 (p53 WT). As to conditions: overnight, various concentrations. Format: cell-based, human. How it is done:
(§3) Human cell lines including HeLa, HEK293, MCF7, MDA-MB-231, CHO-K1, OPM-2, and WI-38 were obtained from American Type Culture Collection. AML2 and AML3 cells were purchased from Deutsche Sammlung von Mikroorganismen und Zellkulturen. HCT116 p53+/+ and p53−/− cells were kindly given by Dr. Bert Vogelstein. Primary human foreskin fibroblasts (HFF) were obtained from Dr. Mark Stinski. […] MDA-MB-231 and OPM-2 cells were cultured in RPMI-1640 (Gibco) containing 10% FBS and 1% penicillin/streptomycin. All cells were routinely maintained in a 37° C. incubator with 5% CO2.
(§4) Cells were plated in clear-bottomed white walled 96-well plates (Corning) and incubated overnight. Cells were treated with indicated peptides in 1% FBS-containing media for overnight or indicated timings at 37° C. Cell viability was measured with CellTiter-Glo reagent (Promega) according to the manufacturer's instructions. For cytotoxicity assay, cells were plated in black walled 96-well plates (Corning) to allow them to adhere overnight. Upon treatment with a pan-caspase inhibitor, z-VAD-Fmk ([…]) (Sigma) and subsequent treatment with LTV-tagged peptides, cytotoxicity induced was determined by CellTox cytotoxicity assay (Promega) 30 minutes after addition of peptides according to the manufacturer's instructions. Luminescence was determined using an Infinite 200 multiplate reader (Tecan).

For data set [3], the target named is T1, NPM. In words: Immunofluorescence of NPM sub-cellular localization, HCT116 (p53 WT). Format: cell-based. As to conditions: 30 μM. How it is done:
as §1, §2

Data set [4] has as its system HCT116 (p53 KO) cells. In words: Cell viability (Cell-Titer Glo) in HCT116 (p53 KO). Format: cell-based, human. As to conditions: overnight, various concentrations. As to the method: as §3, §4
The subject of another data set is MCF7 cells. In words: Cell viability (Cell-Titer Glo) in MCF7 breast cancer cells. Format: cell-based, human. As to conditions: overnight, different concentrations. How it is done:
as §3, §4

Another data set deals with MDA-MB-231 cells. In words: Cell viability (Cell-Titer Glo) in MDA-MB-231 breast cancer cells. Format: cell-based, human. The note with it: overnight, different concentrations. How it is done: as §3, §4
Another data set concerns HEK293 cells. In words: Cell viability (Cell-Titer Glo) in HEK293 cells. Format: cell-based, human. As to conditions: HEK293 normal cells; overnight, various concentrations. As to the method:
as §3, §4

Another data set relates to HeLa cells. In words: Cell viability (Cell-Titer Glo) in HeLa cells. Format: cell-based, human. As to conditions: overnight, various concentrations. As to the method:
as §3, §4

Data set [5] deals with human foreskin fibroblasts (HFF). In words: Cell viability (Cell-Titer Glo) in human foreskin fibroblasts. The note with it: HFF normal fibroblasts; overnight, various concentrations. Format: cell-based. How it is done: as §3, §4
In data set [6] the test system is HCT116 (p53 WT) cells. In words: Time-lapse DIC live cell imaging, HCT116 (p53 WT). The note with it: 30 μM, within minutes. Format: cell-based, human. How it is done: (§5) HCT116 (p53 WT) and HCT116 (p53 KO) cells were cultured on glass slides overnight, treated with vehicle control (0.5% dimethyl sulfoxide (DMSO)) or the indicated FGF peptides (30 μM). Time-lapse DIC imaging highlights dynamic morphological changes in treated HCT116 cells by spinning disk confocal microscopy. […] In contrast, FGF-BR peptide rapidly induces drastic changes to the cell morphology with rupturing of the plasma membrane accompanied with damages to the nuclear membrane and abnormalities to the nucleolus in both cell types. (B) cytotoxicity fluorescence plots of breast cancer cells MCF7 showing the effect of pan-caspase inhibitor z-VAD-Fmk on cells treated with LTV-tagged BR peptide. LTV is a breast cancer cell targeting peptide. MCF7 cells were incubated with or without z-VAD-Fmk (for 90 min) and then with indicated LTV-tagged peptides (30 μM) for thirty minutes at 37° C. Cells treated with LTV-X13 peptide (SEQ ID NO: 14) or vehicles, DMSO (0.5%), were used as negative controls. Treated cells were subjected to the cytotoxicity assay as described in Example 9—Materials and Methods. Data representative of at least three independent experiments performed in triplicate were shown with values expressed as mean±SD.
(§6) The mechanism of cell death induced by the HEXIM1 BR peptide was examined. […]

In data set [7] the test system is HCT116 (p53 KO) cells. In words: Time-lapse DIC live cell imaging, HCT116 (p53 KO). Format: cell-based, human. As to conditions: 30 μM, within minutes. How it is done: as §5, §6
Data set [8] deals with differentiated adipose cells (from 3T3).
Method: (§7) 2.5×10^4 cells/ml of mouse fibroblast cells 3T3 were cultured in gelatin coated plates in Dulbecco's Modified Eagle Medium (DMEM) supplemented with 10% fetal bovine serum (FBS) and 1% penicillin/streptomycin (Gibco) to reach 100% confluent. The cells were then maintained at 100% confluency by supplementing with fresh media in a 37° C. incubator with 5% CO2 for 3 days. For induction, cells were then cultured in DMI Induction Media (which is DMEM supplemented with 10% fetal bovine serum, 1% penicillin/streptomycin, 0.1% 3-isobutyl-1-methylxanthine (sigma), 0.1% insulin (sigma) and 0.1% dexamethasone (sigma)) for 48 hours. The cells were then cultured in Insulin Induction Media (which is DMEM supplemented with 10% fetal bovine serum, 1% penicillin/streptomycin and 0.1% insulin). The insulin induction media was changed every 2 days until the cells were differentiated to adipose cells.
(§8) A D-form BR peptide with the sequence of [sequence] was tagged to a fat tissue targeting peptide of the sequence [sequence] (ATS peptide, SEQ ID NO: 39) to generate the ATS-BRD peptide of the sequence [sequence]([sequence])D (SEQ ID NO: 40). Both undifferentiated 3T3 cells and differentiated adipose cells were treated with the ATS-BRD peptide. ATS-tagged KLAD peptide was used as a positive control.
Data set [9] concerns undifferentiated 3T3 mouse fibroblast cells.
Method: as §7, §8

T1 sequence (P06748 whole entry): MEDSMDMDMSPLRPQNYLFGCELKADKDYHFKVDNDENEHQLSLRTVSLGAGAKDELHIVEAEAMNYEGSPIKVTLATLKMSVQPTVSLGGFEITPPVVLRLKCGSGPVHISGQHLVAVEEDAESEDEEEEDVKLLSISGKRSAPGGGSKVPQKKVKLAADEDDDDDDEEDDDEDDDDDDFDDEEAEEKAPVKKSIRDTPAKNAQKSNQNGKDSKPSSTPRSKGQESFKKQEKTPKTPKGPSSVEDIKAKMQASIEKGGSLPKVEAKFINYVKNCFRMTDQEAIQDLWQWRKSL

Take “FGF-X13: negative control peptide, FGF-tagged X13 (AAVALLPAVLLALLAPMPFSTGKRIMLGE) [reference compound]”: the “sub-cellular localization of NPM” value with NPM [1] and with NPM [3] was “Normal nucleolar localization of NPM” in each case. The “cell death / cell viability” value in the data set on HCT116 (p53 WT) cells [2] and in the data set with HCT116 (p53 KO) cells [4] was “no effects” in each case.
Consider “LTV-X13: LTV-tagged X13 negative control peptide (LTVSPWYGCGMPFSTGKRIMLGE) [reference compound]”, for which the “effect on cell viability” value in the data set on MCF7 cells and in the data set on MDA-MB-231 cells was “no effects were detected” in each case.
Consider “QLGRRRHRRRPSRRRRHW (QLGRRRHRRRPSKKKRHW) [BR-RRR12, BR mutant in which all six HDM2 ubiquitinating lysine residues were mutated to arginine]”, for which the “effect on cell viability” value was “no effect on cell viability” in the data set on MCF7 cells and “remained highly viable” with MDA-MB-231 cells.
Regarding “KLA (KLAKLAKKLAKLAK) [reference compound]”, in the data set with MDA-MB-231 cells, the “effect on cell viability” value is reported as “non-specific killing”.
Consider “FGF-BR-ILAA: FGF-fused BR peptide with KHRR motif mutated to ILAA (AAVALLPAVLLALLAPQLGKKILAARPSKKKRHW)”, for which the “cell death / cell viability” value with HCT116 (p53 WT) cells [2] and with HCT116 (p53 KO) cells [4] was “still maintained its killing ability” in each case.
`CC(C)C[C@H](NC(=O)[C@H](C)NC(=O)[C@H](CC(C)C)NC(=O)[C@H](CC(C)C)NC(=O)[C@@H](NC(=O)[C@H](C)NC(=O)[C@@H]1CCCN1C(=O)[C@H](CC(C)C)NC(=O)[C@H](CC(C)C)NC(=O)[C@H](C)NC(=O)[C@@H](NC(=O)[C@H](C)NC(=O)[C@H](C)N)C(C)C)C(C)C)C(=O)N[C@@H](CC(C)C)C(=O)N[C@@H](C)C(=O)N1CCC[C@H]1C(=O)N[C@@H](CCC(N)=O)C(=O)N[C@@H](CC(C)C)C(=O)NCC(=O)N[C@@H](CCCCN)C(=O)N[C@@H](CCCCN)C(=O)N[C@@H](CCCCN)C(=O)N[C@@H](Cc1c[nH]cn1)C(=O)N[C@@H](CCCNC(=N)N)C(=O)N[C@@H](CCCNC(=N)N)C(=O)N[C@@H](CCCNC(=N)N)C(=O)N1CCC[C@H]1C(=O)N[C@@H](CO)C(=O)N[C@@H](CCCCN)C(=O)N[C@@H](CCCCN)C(=O)N[C@@H](CCCCN)C(=O)N[C@@H](CCCNC(=N)N)C(=O)N[C@@H](Cc1c[nH]cn1)C(=O)N[C@@H](Cc1c[nH]c2ccccc12)C(=O)O` [FGF-BR] (H-AAVALLPAVLLALLAPQLGKKKHRRRPSKKKRHW-OH): the “cytotoxicity (cell viability)” value is reported as “Comparable cytotoxicity” with HEK293 cells, “Cytotoxicity was also observed” in the data set on HeLa cells and “Comparable cytotoxicity” in data set [5].
Regarding `CC(C)C[C@H](NC(=O)[C@H](CCCCN)NC(=O)CNC(=O)[C@H](CS)NC(=O)CNC(=O)[C@H](Cc1ccc(O)cc1)NC(=O)[C@H](Cc1c[nH]c2ccccc12)NC(=O)[C@@H]1CCCN1C(=O)[C@H](CO)NC(=O)[C@@H](NC(=O)[C@@H](NC(=O)[C@@H](N)CC(C)C)[C@@H](C)O)C(C)C)C(=O)N[C@@H](C)C(=O)N[C@@H](CCCCN)C(=O)N[C@@H](CC(C)C)C(=O)N[C@@H](C)C(=O)N[C@@H](CCCCN)C(=O)N[C@@H](CCCCN)C(=O)N[C@@H](CC(C)C)C(=O)N[C@@H](C)C(=O)N[C@@H](CCCCN)C(=O)N[C@@H](CC(C)C)C(=O)N[C@@H](C)C(=O)N[C@@H](CCCCN)C(=O)O` [LTV-KLA, reference compound] (H-LTVSPWYGCGKLAKLAKKLAKLAK-OH), the “cytotoxicity (cell viability)” value in [5] was “non-specific killing”.
On to “FGF-BR-RRR12: FGF-fused BR peptide with all six HDM2 ubiquitinating lysine residues mutated to arginine (AAVALLPAVLLALLAPQLGRRRHRRRPSRRRRHW)”, for which the “cell death / cell viability” value with HCT116 (p53 WT) cells [2] and in the data set on HCT116 (p53 KO) cells [4] was “stronger cell toxicity when compared to the wild-type FGF-BR peptide” throughout.
For “QLGKKKHRRRPSKKKRHW (listed as Homo sapiens) [BR, untagged HEXIM1 basic region peptide]”, the results for the “effect on cell viability” value with MCF7 cells and in the data set on MDA-MB-231 cells were “no effect on cell viability” and “remained highly viable”, respectively.
The matching figures for “LTV-BR-RRR12: breast cancer targeting peptide LTV fused to BR-RRR12 (LTVSPWYGCGQLGRRRHRRRPSRRRRHW)”: “anti-proliferation effects” and “anti-proliferation effects”.
The matching figures for “X13: untagged negative control peptide (MPFSTGKRIMLGE) [reference compound]”: “no effect on cell viability” and “no effect on cell viability”.
Turning to “AAVALLPAVLLALLAP [FGF, cell membrane-translocating peptide derived from Kaposi fibroblast growth factor]”, the morphological changes entry in the data set with HCT116 (p53 WT) cells [6] and in the data set on HCT116 (p53 KO) cells [7] was “No effects were detected” throughout.
Take “CKGGRAKDCGG(QLGKKKHRRRPSKKKRHW)D (CKGGRAKDCGG[dQ][dL]G[dK][dK][dK][dH][dR][dR][dR][dP][dS][dK][dK][dK][dR][dH][dW]; cysteine pairing not given here) [ATS-BRD]”: the “cytotoxic effect (cell viability)” value in [8] is “significant cytotoxic effect”; in [9] it was “no cytotoxic effect”.
